Nine compounds from patent US8524809B2, “Low odor compositions and methods to attain low odor compositions” (Rohm and Haas Company, priority 2010, dated 2013) can be followed below.

One test concerns the target T1, CALBL (Moesziomyces antarcticus, UniProt P41365).
T1 construct: purchased Novozymes, Bagsvaerd, Denmark Novozym CALB L
T1 sequence (P41365 26-342): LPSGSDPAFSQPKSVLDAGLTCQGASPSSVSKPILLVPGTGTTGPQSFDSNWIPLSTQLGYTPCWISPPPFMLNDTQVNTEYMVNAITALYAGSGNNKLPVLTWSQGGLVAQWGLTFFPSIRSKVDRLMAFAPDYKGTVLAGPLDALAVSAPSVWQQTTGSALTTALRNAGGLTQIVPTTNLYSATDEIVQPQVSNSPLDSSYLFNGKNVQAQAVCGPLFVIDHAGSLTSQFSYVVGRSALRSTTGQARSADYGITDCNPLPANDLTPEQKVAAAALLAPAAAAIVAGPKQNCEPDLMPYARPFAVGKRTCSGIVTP
As to the kind of experiment: Small molecule inhibitors: EA content of latex containing CALBL. The note with it: for Inhibition of CALBL (in words): inhibitor 1.0%. Format: biochemical. On the procedure:
(§1) In another embodiment, deactivation of the carboxylesterase enzyme may be achieved by the addition of a small molecule inhibitor, as shown for CALBL and N51032 in Tables 13 and 14, below. […] The small molecule inhibitor and CALBL were added simultaneously at the time t=0. In the following tables, the potential small molecule inhibitors are as follows: […]

The next test concerns N51032. As to the kind of experiment: Small molecule inhibitors: EA content of latex containing N51032. Format: biochemical. The protocol: as §1
Test [1] in a line: Nucleophilic reagents: aldehyde content in vinyl acetate-acrylic latex. Particulars: Rovace 9900 pre-treated 1 week with 50 ppm N51032; reagent 50 ppm, 55° C. 2 hours, then 1 week RT.
Procedure: The latex samples were first treated with a carboxylesterase enzyme (50 ppm of N51032) for 1 week to remove residual esters and also to convert residual vinyl acetate to acetaldehyde (the esterase produces vinyl alcohol, which rearranges to form acetaldehyde). Each sample was then stirred at 55° C. for 2 hours with the reagent shown below in Table 26 (added at a level of 50 ppm), and then left at room temperature for 1 week before evaluating levels of aldehyde in the headspace composition (GC-MS, 33° C.).
The mark [2] stands for this setting: AC-261 latex, CALBL 60 ppm, inhibitor 1.0% added simultaneously (Control: none), 0 hr.
Where [3] appears, read: AC-261 latex, CALBL 60 ppm, inhibitor 1.0% added simultaneously (Control: none), 24 hr.
[4] abbreviates: AC-261 latex, CALBL 60 ppm, inhibitor 1.0% added simultaneously (Control: none), 72 hr.
Where [5] appears, read: AC-261 latex, CALBL 60 ppm, inhibitor 1.0% added simultaneously (Control: none), 168 hr.
Setting [6] is: AC-261 latex, N51032 50 ppm, inhibitor 1% added simultaneously (Control: none), 0 hr.
The mark [7] stands for this setting: AC-261 latex, N51032 50 ppm, inhibitor 1% added simultaneously (Control: none), 24 hr.
Where [8] appears, read: AC-261 latex, N51032 50 ppm, inhibitor 1% added simultaneously (Control: none), 72 hr.
[9] abbreviates: AC-261 latex, N51032 50 ppm, inhibitor 1% added simultaneously (Control: none), 168 hr.
The mark [10] stands for this setting: CALBL 6 ppm, inhibitor 0.001%, 0 hr.
[11] abbreviates: CALBL 6 ppm, inhibitor 0.001%, 120 hr.
Where [12] appears, read: CALBL 6 ppm, inhibitor 0.001%, 168 hr.
[13] abbreviates: CALBL 6 ppm, inhibitor 0.001%, 384 hr.
[14] abbreviates: CALBL 6 ppm, inhibitor 0.001%, 480 hr.
Setting [15] is: CALBL 6 ppm, inhibitor 0.01%, 0 hr.
Where [16] appears, read: CALBL 6 ppm, inhibitor 0.01%, 120 hr.
[17] abbreviates: CALBL 6 ppm, inhibitor 0.01%, 168 hr.
[18] abbreviates: CALBL 6 ppm, inhibitor 0.01%, 384 hr.
Setting [19] is: CALBL 6 ppm, inhibitor 0.01%, 480 hr.
Where [20] appears, read: CALBL 6 ppm, inhibitor 0.1%, 0 hr.
The mark [21] stands for this setting: CALBL 6 ppm, inhibitor 0.1%, 120 hr.
[22] abbreviates: CALBL 6 ppm, inhibitor 0.1%, 168 hr.
The mark [23] stands for this setting: CALBL 6 ppm, inhibitor 0.1%, 384 hr.
[24] abbreviates: CALBL 6 ppm, inhibitor 0.1%, 480 hr.
The mark [25] stands for this setting: N51032 5 ppm, inhibitor 0.001%, 0 hr.
The mark [26] stands for this setting: N51032 5 ppm, inhibitor 0.001%, 120 hr.
Setting [27] is: N51032 5 ppm, inhibitor 0.001%, 168 hr.
[28] abbreviates: N51032 5 ppm, inhibitor 0.001%, 384 hr.
Where [29] appears, read: N51032 5 ppm, inhibitor 0.001%, 480 hr.
Setting [30] is: N51032 5 ppm, inhibitor 0.01%, 0 hr.
The mark [31] stands for this setting: N51032 5 ppm, inhibitor 0.01%, 120 hr.
Where [32] appears, read: N51032 5 ppm, inhibitor 0.01%, 168 hr.
[33] abbreviates: N51032 5 ppm, inhibitor 0.01%, 384 hr.
The mark [34] stands for this setting: N51032 5 ppm, inhibitor 0.01%, 480 hr.
[35] abbreviates: N51032 5 ppm, inhibitor 0.1%, 0 hr.
The mark [36] stands for this setting: N51032 5 ppm, inhibitor 0.1%, 120 hr.
Setting [37] is: N51032 5 ppm, inhibitor 0.1%, 168 hr.
Where [38] appears, read: N51032 5 ppm, inhibitor 0.1%, 384 hr.
Setting [39] is: N51032 5 ppm, inhibitor 0.1%, 480 hr.

For `OB(O)C1CCCCC1` [CBA, cyclohexylboronic acid], the “EA content” value at CALBL (setting [2]) came out at 102 ppm; at CALBL (setting [3]), 70 ppm; on CALBL (setting [4]) it was 55 ppm; at CALBL (setting [5]), 24 ppm; in the test on N51032 (setting [6]) it was 117 ppm; with N51032 (setting [7]) it was 96 ppm. Also, the “EA content” value in the test with N51032 (setting [8]) is 109 ppm; in the test on N51032 (setting [9]), 79 ppm. Besides, the “Inhibition of CALBL (in words)” value on CALBL (CALBL 60 ppm) is reported as “some ability to inhibit the CALBL enzyme”.

In the case of `OB(O)c1ccccc1` [PBA, phenylboronic acid], the “EA content” value on CALBL (setting [2]) worked out at 108 ppm; at CALBL (setting [3]) it was 103 ppm; on CALBL (setting [4]), 116 ppm; on CALBL (setting [5]) it was 108 ppm; at CALBL (setting [10]) it was 48; at CALBL (setting [11]), 30. The EA content is 25 on CALBL (setting [12]); 11 on CALBL (setting [13]); 9 at CALBL (setting [14]); 44 on CALBL (setting [15]); 32 on CALBL (setting [16]); 26 on CALBL (setting [17]). In addition, the EA content at CALBL (setting [18]) amounted to 15; on CALBL (setting [19]) it was 15; on CALBL (setting [20]) it was 39; on CALBL (setting [21]), 35; on CALBL (setting [22]) it was 35; at CALBL (setting [23]) it was 29. Also, the EA content at CALBL (setting [24]) is 29; in the test with N51032 (setting [6]), 116 ppm; in the test with N51032 (setting [7]), 116 ppm; with N51032 (setting [8]), 111 ppm; with N51032 (setting [9]) it was 117 ppm; in the test on N51032 (setting [25]) it was 46 ppm. For the same compound, the EA content in the test on N51032 (setting [26]) was 36 ppm; in the test on N51032 (setting [27]) it was 34 ppm; with N51032 (setting [28]), 22 ppm; with N51032 (setting [29]), 19 ppm; in the test on N51032 (setting [30]), 45 ppm; in the test with N51032 (setting [31]), 41 ppm. Further, the EA content in the test on N51032 (setting [32]) was 39 ppm; with N51032 (setting [33]) it was 34 ppm; in the test on N51032 (setting [34]) it was 34 ppm; in the test with N51032 (setting [35]), 46 ppm; with N51032 (setting [36]), 34 ppm; in the test on N51032 (setting [37]) it was 41 ppm. Also, the EA content came out at 38 ppm with N51032 (setting [38]) and 39 ppm in the test with N51032 (setting [39]). Also, the “Inhibition of CALBL (in words)” value at CALBL (CALBL 60 ppm) is “effective in inhibiting the carboxylesterase enzyme”. For the same compound, the “Inhibition of N51032 (in words)” value in the test on N51032 (inhibitor 1%, N51032 50 ppm) is on record as “effective in inhibiting the carboxylesterase enzyme”.

As for `CCCCCCCCCCS(=O)(=O)[O-].[Na+]` [S-1-DS, Sodium 1-decane-sulfonate], the “EA content” value at CALBL (setting [2]) was 114 ppm; on CALBL (setting [3]), 73 ppm; on CALBL (setting [4]) it was 36 ppm; at CALBL (setting [5]) it was 17 ppm; in the test with N51032 (setting [6]), 115 ppm; in the test with N51032 (setting [7]), 73 ppm. Also, the entries for the “EA content” value in the test with N51032 (setting [8]) and in the test on N51032 (setting [9]) were 79 ppm and 77 ppm, respectively. Further, the “Inhibition of CALBL (in words)” value at CALBL (CALBL 60 ppm) is recorded as “some ability to inhibit the CALBL enzyme”.

In the case of `NNc1ccc(C(=O)O)cc1` [4HB, 4-hydrazino benzoic acid], in test [1], the “Acetaldehyde Headspace Concentration” value is 14 ppm, the “Acetone Headspace Concentration” value worked out at 247 ppm, the “Ethanol Headspace Concentration” value came to 20 ppm and the “butanal Headspace Concentration” value amounted to 0 ppm. Further, in test [1], the “l-butanol Headspace Concentration” value was 48 ppm and the “t-butanol Headspace Concentration” value stood at 258 ppm.

Consider `CC(C)(C)CB(O)O` [NPB, Neopentylboronic acid], for which the “EA content” value worked out at 107 ppm on CALBL (setting [2]); 21 ppm at CALBL (setting [3]); 0 ppm at CALBL (setting [4]); 0 ppm on CALBL (setting [5]); 116 ppm in the test with N51032 (setting [6]); 49 ppm in the test on N51032 (setting [7]). Further, the “EA content” value in the test on N51032 (setting [8]) came to 30 ppm; with N51032 (setting [9]), 6 ppm. The “Inhibition of CALBL (in words)” value on CALBL (CALBL 60 ppm) is given as “completely ineffective as an inhibitor of CALBL”.

For `NCCNCCNCCN` [TET, triethylene tetramine], in test [1], the “Acetaldehyde Headspace Concentration” value stood at 42 ppm, the “Acetone Headspace Concentration” value is on record as 262 ppm, the “Ethanol Headspace Concentration” value was 23 ppm and the “butanal Headspace Concentration” value is on record as 1 ppm. Moreover, in test [1], the “l-butanol Headspace Concentration” value is reported as 64 ppm and the “t-butanol Headspace Concentration” value is 278 ppm.

For the compound `CC(C)CB(O)O` [2MPB, (2-methylpropyl) boronic acid], the “EA content” value is given as 105 ppm on CALBL (setting [2]); 95 ppm on CALBL (setting [3]); 102 ppm at CALBL (setting [4]); 104 ppm at CALBL (setting [5]); 44 at CALBL (setting [10]); 32 on CALBL (setting [11]). In addition, the EA content stood at 23 at CALBL (setting [12]); 10 on CALBL (setting [13]); 8 at CALBL (setting [14]); 43 on CALBL (setting [15]); 28 on CALBL (setting [16]); 24 on CALBL (setting [17]). Besides, the EA content on CALBL (setting [18]) was 13; at CALBL (setting [19]), 11; on CALBL (setting [20]), 43; at CALBL (setting [21]), 34; on CALBL (setting [22]), 25; at CALBL (setting [23]), 15. The EA content was 13 at CALBL (setting [24]); 117 ppm with N51032 (setting [6]); 92 ppm with N51032 (setting [7]); 99 ppm in the test with N51032 (setting [8]); 79 ppm in the test with N51032 (setting [9]); 42 ppm in the test with N51032 (setting [25]). The EA content in the test on N51032 (setting [26]) was 24 ppm; in the test on N51032 (setting [27]) it was 22 ppm; in the test on N51032 (setting [28]) it was 8 ppm; in the test on N51032 (setting [29]), 6 ppm; with N51032 (setting [30]), 37 ppm; in the test with N51032 (setting [31]) it was 25 ppm. The EA content was found to be 19 ppm in the test with N51032 (setting [32]); 6 ppm in the test with N51032 (setting [33]); 5 ppm in the test with N51032 (setting [34]); 43 ppm in the test on N51032 (setting [35]); 34 ppm in the test on N51032 (setting [36]); 27 ppm in the test on N51032 (setting [37]). Further, the EA content in the test with N51032 (setting [38]) was 22 ppm; in the test on N51032 (setting [39]), 20 ppm. The “Inhibition of CALBL (in words)” value at CALBL (CALBL 60 ppm) was “effective in inhibiting the carboxylesterase enzyme”.

For `Nc1ccc(N)cc1` [PPD, p-phenylene diamine], in test [1], the “Acetaldehyde Headspace Concentration” value amounted to 0 ppm, the “Acetone Headspace Concentration” value stood at 279 ppm, the “Ethanol Headspace Concentration” value is reported as 25 ppm and the “butanal Headspace Concentration” value was 0 ppm. In addition, in test [1], the “l-butanol Headspace Concentration” value came to 58 ppm and the “t-butanol Headspace Concentration” value worked out at 304 ppm.

Turning to `Nc1ccc(CO)cc1` [4ABA, 4-aminobenzyl alcohol], in test [1], the “Acetaldehyde Headspace Concentration” value turned out to be 151 ppm, the “Acetone Headspace Concentration” value came out at 245 ppm, the “Ethanol Headspace Concentration” value is 20 ppm and the “butanal Headspace Concentration” value is reported as 1 ppm. For the same compound, in test [1], the “l-butanol Headspace Concentration” value is 48 ppm and the “t-butanol Headspace Concentration” value worked out at 257 ppm.
